Measurements published in patent US10053666B2, “Medium for preparing a neural cell and usage thereof” (SHENZHEN CELL INSPIRE BIOTECHNOLOGY CO., LTD., priority 2014, dated 2018).

How the values were obtained:
[1] = test system: IMR90; assay: Conversion of fibroblast cell line to neural cell / iOPC in neural induction medium; format: cell-based, human; conditions: for conversion into neural cell: 10 μM in neural induction medium, IMR90
Protocol: (§1) Using the same method with EXAMPLE 1, cultured fiber cell line IMR90 and WI38 with neural induction medium including 10 μM Y27632, Palomid 529, LY294002, PF562271 or rapamycin.
(§2) In contrast, after 4 weeks in the same induction medium without ROCK inhibitor, cells kept fibroblast morphology with negative staining of O4, A2B5, and S100β (data not shown). […] To confirm conversion of fibroblasts to iOPCs by ROCK inhibitor, additional two human primary fibroblast cell lines, IMR90 and WI38, were tested using the same fibroblast—OPC conversion conditions. Consistent with the results from adult dermal cells, inventors observed 60-80% of fibroblast—OPC conversion in these two cell lines (data not shown). Next, inventors assessed whether the iOPCs could differentiate into mature oligodendrocytes. After removing growth factors and addition of thyroid hormone (a known inducer of oligodendrocyte differentiation) in cell culture medium, about 70% of the iOPCs differentiated into cells with a multiprocessed morphology typical of oligodendrocytes within 3-7 days (FIG. 2b). The oligodendrocytes expressed myelin basic protein (MBP), an integral protein component of the myelin sheath, and other defining markers of mature oligodendrocytes, including myelin-associated glycoprotein and myelin oligodendrocyte glycoprotein (FIG. 2b). Thus, inventors concluded that ROCK inhibitor-induced iOPCs can be further differentiated into mature functional oligodendrocytes.

[2] = test system: WI38; assay: as above; format: cell-based, human; conditions: for conversion into neural cell: 10 μM in neural induction medium, WI38
Protocol: as §1, §2

[3] = test system: human adult dermal fibroblasts; assay: Screening of protein kinase inhibitor library for fibroblast-OPC conversion; format: cell-based; conditions: with retinoic acid (RA), neural induction medium, quantified on day 7
Protocol: 1. Coated cell culture 24-well plate with 0.1 mg/ml Poly-L-ornithine solution (sigma, P4957) for at least 3 hours. Then washed wells 3 times with autoclaved MilliQ water, 5 mins per time.
2. Added 500 ul/well of […] Fibronectin (sigma, F0556) and […] Laminin (ROCHE, 11243217001) solution in 1×PBS and placed in incubator overnight to coat.
3. Aspirated the Fibronectin/Laminin solution from the wells, washed with culture medium.
4. Plated fibroblast cells with Basic Medium at 2×10^4 cells (human adult dermal fibroblasts, ATCC, PCS-201-012) per well, cultured overnight. The Basic Medium comprises: DMEM high glucose (HyClone, SH30022), 10% FBS (Fisher Scientific, SH3007003), 10 mM HEPES (CORNING 25060-CL), 1×MEM NEAA (100×) (GIBCO, 11140) (MEM Non-Essential Amino Acids Solution), 1 mM Na Pyruvate (GIBCO, 25000), 1×2-Mercaptoethanol (1000×) (GIBCO, 21985), 1× Glutamax (100×) (GIBCO, 35050), penicillin/streptomycin.
5. Aspirated Basic Medium from the wells.
7. Fed wells with Induction Medium. Changed medium every two days. […]

[4] = test system: dermal fibroblasts; assay: Immunostaining of OPC-specific biomarkers after 7-day induction; format: cell-based, human
Protocol: After 7-day induction with ROCK inhibitor treatment, cells were fixed and analyzed by immunostaining of the OPC-specific biomarker, O4. Immunofluorescence staining was performed as following steps:
Briefly, 5×10^4 modified human fibroblasts were planted on coated glass coverslips the day before induction. After induction, cells were fixed for 20 min at room temperature in 4% paraformaldehyde in PBS, permeabilized for 30 min in PBS containing 0.2% Triton X-100 and 10% normal goat serum (NGS), and incubated overnight at 4° C. in PBS containing 10% NGS and primary antibodies. Then cells were washed three times with PBS and incubated for 2 h at room temperature with anti-rabbit or anti-mouse secondary antibodies Alexa Fluor-488 or Alexa Fluor-594 (1:500, Invitrogen). The images were acquired by immunofluorescence microscope or Zeiss LSM 510 META confocal microscope with 40×, 1.3 numerical aperture oil-immersion objective.
The following antibodies were used for the immunofluorescence studies: mouse anti-04 (Millipore, 1:50), rabbit anti-NF (Sigma-Aldrich, 1:1000), mouse anti-A2B5 (Millipore, 1:50), MBP (1:100, Covance; 1:100, Abcam), MAG (Millipore, 1:50), MOG (Millipore, 1:50).

[5] = test system: IMR90 fibroblasts; assay: Direct conversion of fibroblasts to neurons and astrocytes; format: cell-based, human
Protocol: To assess the general application of ROCK inhibitor for direct conversion of different neural cells, inventors tweaked the protocol for induction of iOPCs and successfully converted fibroblasts to typical neurons and astrocytes. using the following procedure:
at Day 1, coat tissue culture 24-well plate with 0.1 mg/ml Poly-L-ornithine solution (sigma, P4957) for at least 3 hours; wash wells 3 times with autoclaved MilliQ water, 5 mins each; add 500 ul/well of 2 μg/ml Fibronectin (sigma, F0556) and 10 μg/ml Laminin (ROCHE, 11243217001) solution in 1×PBS and place in incubator overnight to coat. At Day 2, aspirate the F/L solution from the well, wash with basic medium and plate fibroblast cells with basic medium at 2×10^4 cells per well. At Day 3, aspirate basic medium from the well, wash with PBS once, and feed cells with induction medium. From Day 6-10, when cells change their morphology into neural-like cells, culture cells with mature medium or OPC medium.

SMILES	conversion into neural cell [1]	conversion into neural cell [2]	efficiency of conversion of human fibroblasts into iOPCs (OPC positive cells counted by morphology) [3] [%]	fibroblast-OPC conversion ([1]; IMR90, same conversion conditions (data not shown))	fibroblast-OPC conversion ([2]; WI38, same conversion conditions (data not shown))	dermal fibroblasts converted to O4-positive cells with OPC morphology ([4]; 7-day induction)	staining with additional OPC markers A2B5 and S100β ([4]; O4 positive cells after 7-day induction)	staining of astrocyte-specific biomarker GFAP in induced astrocytes ([5]; induced astrocytes)	staining of neuronal biomarkers Tuj and MAP2 in induced neuronal cells ([5]; induced neuronal cells (iNCs))
CN(c1ncccc1CNc1nc(Nc2ccc3c(c2)CC(=O)N3)ncc1C(F)(F)F)S(C)(=O)=O [PF562271]	converted into neural cell	converted into neural cell							
COc1ccc(COc2cc3oc(=O)c4cc(C(C)O)ccc4c3cc2OC)cc1 (stereo not shown) [Palomid 529]	converted into neural cell	converted into neural cell							
C[C@@H](N)[C@H]1CC[C@H](C(=O)Nc2ccncc2)CC1 [Y27632]	converted into neural cell	converted into neural cell	~80	60-80%	60-80%	about 80%	positive staining	positive staining	positive staining
